What was measured:
XRCC4 [1] = assay: qRT-PCR of shRNA-mediated inhibition of NHEJ component gene expression (Example 3); type: cell-based, human; settings: AC16 cells, 5 μg shRNA plasmid, 3 days after transfection, FIG. 6
Procedure: (§1) Purification of total RNA was performed, and reverse transcription of total 1 μg RNA was performed with Superscript IV reverse transcriptase (INVITROGEN) using random hexamers. For real-time PCR, 1/20 of the RT product was amplified with the KAPA SYBR FAST qPCR kit (KAPA BIOSYSTEM, Wilmington, MA, USA) using the real-time cycler Quantstudio (THERMO FISHER SCIENTIFIC). The relative amount of mRNA transcripts was measured by the […]. GAPDH and 18s rRNA were used as endogenous controls.
(§2) 5 μg of plasmid vector encoding shRNA was prepared using All-in-one vector (Biofact), transfected into AC16 cells, and harvested 3 days after transfection. Then, mRNA expression of each NHEJ component gene was measured by qRT-PCR. […] The sequences of sense strands of the shRNAs used are described in Table 9.

XRCC4 [2] = assay: Western blot of shRNA-mediated inhibition of NHEJ component gene expression (Example 4); type: cell-based, human; settings: AC16 cells, conditions as Example 3, FIG. 7
Procedure: (§3) Cell extracts were prepared by scraping cells with 60 to 80 μl of RIPA Lysis and Extraction Buffer (THERMOFISHER, 89900) containing protease inhibitor cocktail (ROCHE, 11836153001) at 4° C. and kept on ice for 10 minutes. The concentration of the cleared lysate was measured by Bradford assay (BIO-RAD), in which 20 to 65 μg of protein lysate, depending on the target protein, was loaded onto Mini-PROTEAN® TGX™ Precast Protein Gels (BIO-RAD), electrophoresed, and transferred to PVDF membranes using the Trans-Blot Turbo Transfer System (BIO-RAD). The membrane was incubated at room temperature for 1 hour in a blocking solution containing 5% non-fat dry milk in TBS-T and then incubated at 4° C. overnight with primary antibodies in TBS-T. After incubation with primary antibodies, the membrane was washed four times with TBS-T and then incubated at room temperature for 1 hour in a blocking solution containing anti-rabbit or anti-mouse immunoglobulin conjugated with HRP. The membrane was additionally washed four times with TBS-T and specific protein complexes were visualized with ECL prime (CYTIVA). Antibodies used were against KU70 (CST, 4588S), DNA ligase IV (CST, 146495), XLF (CST, 2854S), Artemis (CST, 13381), GAPDH (CST, 2118L), and XRCC4 (THERMO, MA5-24383).
(§4) shRNA-mediated inhibition of gene expression was analyzed by Western blot analysis. The experimental conditions were the same as in Example 3. […] As a result, the Western blot results were consistent with the qRT-PCR results.

Dclre1c [3] = assay: qRT-PCR of murine Dclre1c mRNA after shRNA treatment in Hepa-1c1c7 cells (Example 11); type: cell-based, mouse; settings: shRNA under U6 promoter, FIG. 14
Procedure: as §1
shRNAs for the Dclre1c gene encoding mouse Artemis protein were selected in Hepa-1c1c7 cells. The shRNAs, which are expressed under the U6 promoter, were generated, and qRT-PCR was performed to measure of the Dclre1c mRNA levels. […] The thus selected shRNAs can be used for in vivo studies using mouse models (for example, DMD mouse model with endogenous murine Dclre1c gene).

DCLRE1C [4] = assay: DCLRE1C mRNA level by qPCR in HEK293T cells (Example 7.1); type: cell-based, human; settings: 3 days, compared among shDCLRE1C-2, -3, -5, FIG. 10B
Procedure: as §1
(§5) The efficiency of large-scale deletion was analyzed by qPCR 3 days after treatment of HEK293T cells with the selected shRNA (shDCLRE1C-2, -3, or -5)+UnCas12f1 and a pair of gRNA (F142/R52), and the results are shown in FIG. 10A.

Dystrophin Exon 51, E51 [5] = assay: Whole genome sequencing (WGS) analysis of E51 deletion efficiency (Example 8); type: cell-based, human; settings: HEK293T cells, UnCas12f1 + gRNA pair F142/R52, 5 days after transfection, shRNA in two copies (shDC-3×2), FIG. 11
Procedure: HEK293T cells were transfected with UnCas12f1, a pair of gRNA (F142/R52), and shRNA, and then harvested 5 days after transfection. Genomic DNA was purified using a gDNA prep kit (Maxwell® RSC Cultured Cells DNA, PROMEGA, AS1620). 400 to 500 ng of genomic DNA was fragmented, and libraries were prepared using the MGIEasy FS DNA Library Prep. Kit (MGI Tech) according to the manufacturer's instructions. The libraries were then subjected to WGS using DNBSEQ-T7 (MGI Tech). Sequence reads were mapped to the human genome reference standard, GRCh38. Large-scale deletion efficiency was analyzed by counting reads mapped to the deleted region between a pair of gRNAs, and counts per million (CPM) was calculated. The percentage of deletion was calculated based on the difference in CPM between the sample and the control.
HEK293T cells were transfected with UnCas12f1, a pair of gRNA (F142/R52), and shRNA, and then harvested 5 days after transfection. gDNA was prepared therefrom for WGS that is performed to verify large-scale deletion efficiency. To compare the degree of deletion between the two gRNAs which is induced at both sides of E51, reads were mapped to the reference standard sequence and counting was performed within the deleted region. The data were presented as CPM (Count Per Million) along with each read count. […]

Dystrophin Exon 51, E51 [6] = assay: Quantification of large-scale deletion of E51 by qPCR in HEK293T cells (Example 7); type: cell-based, human; settings: 3 days, shRNA + UnCas12f1 + gRNA pair F142/R52, qPCR, compared among shDCLRE1C-2, -3, -5, FIG. 10A
Procedure: Quantitative real-time PCR was used to quantify genomic DNA. Primer sequences were designed for each of the E51 internal regions where large-scale deletion occurs. For qPCR, 20 ng of gDNA was amplified with the KAPA SYBR FAST qPCR kit (KAPA BIOSYSTEM, Wilmington, MA, USA) using the real-time cycler Quantstudio (THERMO FISHER SCIENTIFIC).
as §5
For shDCLRE1C and shXRCC6 among the shRNAs selected in Example 4, experiments were conducted in the same manner as in Example 7.1 using the two shRNAs alone, in combination, or one shRNA thereof in two copies, to analyze the efficiency of large-scale deletion of E51.

DCLRE1C [7] = assay: qRT-PCR of mRNA expression in AC16 cells transfected with candidate shRNAs (Example 12.1); type: cell-based, human; settings: 5 ug, 3 days, among the five shDCLRE1C shRNAs, FIG. 17
Procedure: as §1
Candidate shRNAs for six genes known to be involved in the NHEJ repair pathway were transfected into previously prepared AC16 cells at a dose of 5 ug, and incubation was performed for 3 days. Then, the cells were harvested and qRT-PCR was used to measure the mRNA expression levels of the genes. The results are shown in FIG. 15 (ATM1 and XRCC4), FIG. 16 (XLF-1 and XRCC6), and FIG. 17 (LIG4 and DCLRE1C). From the results, the optimal shRNAs were selected. Scrambled indicates the control shRNA.

Dystrophin Exon 51, E51 [8] = assay: E51 deletion by UnCas12f1 with shRNA, agarose gel of PCR-amplified E51 region and band intensity analysis (Examples 5, 6); type: cell-based, human; settings: HEK 293T cells, Image J analysis of FIG. 8, comparison between shRNAs, FIG. 9
Procedure: A pair of guide RNAs for the targets F142 and R52 as shown in Table 14 was used to induce E51 deletion. In order to accurately find the optimal shRNA for a large-scale deletion strategy, comparison of the deletion efficiency altered by the selected shRNAs was conducted in HEK 293T cells. The E51 deletion efficiency was measured on an agarose gel in which the PCR-amplified E51 region was decomposed. From the results, it can be seen that treatment with shRNA increases the E51 deletion efficiency caused by UnCas12f1 .
To compare the large-scale deletion efficiency between various treatments with shRNA, intensity analysis was conducted on the deletion band (Del) and the non-deletion band (WT) in FIG. 8, and the relative values were calculated using Image J software.

DCLRE1C [9] = assay: qRT-PCR of shRNA-mediated inhibition of NHEJ component gene expression (Example 3); type: cell-based, human; settings: AC16 cells, 5 μg shRNA plasmid, 3 days after transfection, FIG. 6
Procedure: as §1, §2

Artemis = assay: Western blot of shRNA-mediated inhibition of NHEJ component gene expression (Example 4); type: cell-based, human; settings: AC16 cells, conditions as Example 3, FIG. 7
Procedure: as §3, §4

XRCC6 = assay: qRT-PCR of shRNA-mediated inhibition of NHEJ component gene expression (Example 3); type: cell-based, human; settings: AC16 cells, 5 μg shRNA plasmid, 3 days after transfection, FIG. 6
Procedure: as §1, §2

KU70 = assay: Western blot of shRNA-mediated inhibition of NHEJ component gene expression (Example 4); type: cell-based, human; settings: AC16 cells, conditions as Example 3, FIG. 7
Procedure: as §3, §4

XLF [10] = assay: qRT-PCR of shRNA-mediated inhibition of NHEJ component gene expression (Example 3); type: cell-based, human; settings: AC16 cells, 5 μg shRNA plasmid, 3 days after transfection, FIG. 6
Procedure: as §1, §2

XLF [11] = assay: Western blot of shRNA-mediated inhibition of NHEJ component gene expression (Example 4); type: cell-based, human; settings: AC16 cells, conditions as Example 3, FIG. 7
Procedure: as §3, §4

LIG4 = assay: qRT-PCR of shRNA-mediated inhibition of NHEJ component gene expression (Example 3); type: cell-based, human; settings: AC16 cells, 5 μg shRNA plasmid, 3 days after transfection, FIG. 6
Procedure: as §1, §2

DNA ligase IV = assay: Western blot of shRNA-mediated inhibition of NHEJ component gene expression (Example 4); type: cell-based, human; settings: AC16 cells, conditions as Example 3, FIG. 7
Procedure: as §3, §4

ATM1 [12] = assay: as above; type: cell-based, human; settings: AC16 cells, conditions as Example 3, FIG. 7
ATM1 [13] = assay: qRT-PCR of shRNA-mediated inhibition of NHEJ component gene expression (Example 3); type: cell-based, human; settings: AC16 cells, 5 μg shRNA plasmid, 3 days after transfection, FIG. 6
Procedure: as §1, §2

GAAUCCACCUUUGUUUCUGA (sense GAAUCCACCUUGUUUCUGA; part of shRNA hairpin, further chemistry not given here) [XRCC4-3]
mRNA expression of NHEJ component gene XRCC4 (XRCC4 [1]): most effective | inhibition of XRCC4 expression by Western blot (XRCC4 [2]): effectively reduced expression of the target genes

GAGCUGGGAGUUCAGGUUCA (listed as RNA, chemistry not given here) [shDclre1c-12]
Dclre1c mRNA level (Dclre1c [3]): greatest decrease

GCACCGCAAGCCUUCUAUA (listed as RNA, chemistry not given here) [shDclre1c-3]
DCLRE1C mRNA level (DCLRE1C [4]): most effectively downregulates DCLRE1C expression | mapped reads in the deleted region (CPM) (Dystrophin Exon 51, E51 [5]): decreased | deletion level (efficiency of large-scale deletion of E51) (Dystrophin Exon 51, E51 [6]): highest deletion level

GCAGAAUUCUUCCCAGUCAUUCAAGAGAUGACUGGGAAGAAUUCUGC (short hairpin RNA, further chemistry not given here) [shDCLRE1C5]
mRNA expression inhibition efficiency (DCLRE1C) (DCLRE1C [7]): highest mRNA expression inhibition efficiency

GCAGAGCUCUCCUUUCACA (sense GCAGAGCUCUCGUUUCACA; part of shRNA hairpin, further chemistry not given here) [DCLRE1C-3]
large-scale deletion efficiency (relative intensity of deletion band vs non-deletion band) (Dystrophin Exon 51, E51 [8]): most effective | mRNA expression of NHEJ component gene DCLRE1C (DCLRE1C [9]): most effective | inhibition of DCLRE1C (Artemis) expression by Western blot (Artemis): effectively reduced expression of the target genes

GCAGAGCUCUCGUUUCACAUUCAAGAGAUGUGAAACGAGAGCUCUGC (short hairpin RNA, further chemistry not given here) [shDCLRE1C3]
mRNA expression inhibition efficiency (DCLRE1C) (DCLRE1C [7]): highest mRNA expression inhibition efficiency

GCAGCAUUGUGCAGAUACA (listed as RNA, chemistry not given here) [XRCC6-1]
mRNA expression of NHEJ component gene XRCC6 (XRCC6): most effective | inhibition of XRCC6 (KU70) expression by Western blot (KU70): effectively reduced expression of the target genes

GCAUGAGUCUGGCAUUACA (listed as RNA, chemistry not given here) [XLF-1]
mRNA expression of NHEJ component gene XLF (XLF [10]): most effective | inhibition of XLF expression by Western blot (XLF [11]): effectively reduced expression of the target genes

GCAUGAUCCUUCUGUAGGA (listed as RNA, chemistry not given here) [LIG4-5]
mRNA expression of NHEJ component gene LIG4 (LIG4): most effective | inhibition of LIG4 (DNA ligase IV) expression by Western blot (DNA ligase IV): effectively reduced expression of the target genes

GGACAAAGCUGACUACAGAUUCAAGAGAUCUGUAGUCAGCUUUGUCC (short hairpin RNA, further chemistry not given here) [shDCLRE1C2]
mRNA expression inhibition efficiency (DCLRE1C) (DCLRE1C [7]): highest mRNA expression inhibition efficiency

GGAGCUGAUUGUAGCAACA (listed as RNA, chemistry not given here) [ATM-3]
inhibition of ATM expression by Western blot (ATM1 [12]): effectively reduced expression of the target genes | mRNA expression of NHEJ component gene ATM (ATM1 [13]): most effective
